According to patent publication US20230365563A1, “QUINAZOLINE COMPOUND AND APPLICATION THEREOF” (SHANGHAI PHARMACEUTICALS HOLDING CO., LTD., priority 2020, published 2023):
Where a name gives a salt, the structure may show the parent alone.

What was measured:
KRAS-G12D and SOS1 = biological target: T1, KRAS-G12D and SOS1 (Homo sapiens, UniProt P01116, G12D); test: Inhibition of KRAS-G12D/SOS1 binding (Cisbio binding kit, 665/615 ratio), Effect Embodiment A; conditions: read-out: GTP-KRAS-G12D:SOS1 IC50
T1 construct: purchased
In short: (§1)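 Compounds underwent 3-fold dilution from their storage solutions (11 points), were transferred to assay wells in duplicate with DMSO held at 1% final, and were briefly centrifuged.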

KRAS_G12D and cRAF = biological target: T2, KRAS_G12D and cRAF (Homo sapiens, UniProt P01116, G12D); test: Inhibition of KRAS_G12D/cRAF binding (Cisbio binding kit, 665/615 ratio), Effect Embodiment B; conditions: read-out: GTP-KRAS-G12D:CRAF IC50
T2 construct: purchased
In short: as §1

KRAS_WT and SOS1 = biological target: T3, KRAS_WT and SOS1 (Homo sapiens, UniProt P01116); test: Inhibition of KRAS_WT/SOS1 binding (Cisbio binding kit, 665/615 ratio), Effect Embodiment C; conditions: read-out: GTP-KRAS-WT:SOS1 IC50
T3 construct: purchased
In short: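 Compounds tested as 3-fold, 11-point dilutions in duplicate at 1% DMSO final against the KRAS_WT/SOS1 binding system. IC50 derived by nonlinear regression fit.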

T3 sequence (P01116 1-188 isoform P01116-2): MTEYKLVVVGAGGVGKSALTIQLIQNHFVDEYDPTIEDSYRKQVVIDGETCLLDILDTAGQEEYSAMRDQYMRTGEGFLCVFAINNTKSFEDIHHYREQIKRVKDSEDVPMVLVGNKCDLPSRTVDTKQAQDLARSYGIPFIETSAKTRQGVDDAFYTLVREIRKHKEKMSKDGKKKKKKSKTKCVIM
T1 sequence (P01116 1-188 isoform P01116-2 G12D): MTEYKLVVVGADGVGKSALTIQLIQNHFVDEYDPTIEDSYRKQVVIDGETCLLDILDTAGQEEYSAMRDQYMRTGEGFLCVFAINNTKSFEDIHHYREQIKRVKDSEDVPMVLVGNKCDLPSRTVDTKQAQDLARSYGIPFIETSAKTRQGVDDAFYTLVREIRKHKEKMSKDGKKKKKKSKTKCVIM
T2 sequence (P01116 1-188 isoform P01116-2 G12D): as above

SMILES | IC50 (KRAS-G12D and SOS1) [nM] | IC50 (KRAS_G12D and cRAF) [nM] | IC50 (KRAS_WT and SOS1) [nM]
Oc1cc(-c2c(Cl)cc3c(N4CC5CCC(C4)N5)nc(OCC4(CN5CCCC5)CC4)nc3c2F)c2ccccc2c1 (single isomer, unassigned) [Compound 97, 4-((S or R)-4-((1R,5S)-3,8-diazabicyclo[3.2.1]octan-3-yl)-6-chloro-8-fluoro-2-((1-(pyrrolidin-1-ylmethyl)cyclopropyl)methoxy)quinazolin-7-yl)naphthalen-2-ol] | 18.9 | 15.6 | 291
Oc1cc(-c2c(Cl)cc3c(N4CC5CCC(C4)N5)nc(OC[C@@H]4CCCN4C4CC4)nc3c2F)c2ccccc2c1 (single isomer, unassigned) [Compound 163, 4-((R or S)-4-((1R,5S)-3,8-diazabicyclo[3.2.1]octan-3-yl)-6-chloro-2-((S)-1-cyclopropylpyrrolidin-2-yl)methoxy)-8-fluoroquinazolin-7-yl)naphthalen-2-ol dihydrochloride] | 18.6 | 49.8 | 787
CN(C)CCCCCOc1nc(N2CC3CCC(C2)N3)c2cc(Cl)c(-c3cc(O)cc4ccccc34)c(F)c2n1 (single isomer, unassigned) [Compound 98, 4-((S or R)-4-((1R,5S)-3,8-diazabicyclo[3.2.1]octan-3-yl)-6-chloro-2-((5-(dimethylamino)pentyl)oxy)-8-fluoroquinazolin-7-yl)naphthalen-2-ol carboxylate] | 95.3 | 477 | 7700
Oc1cc(-c2c(Cl)cc3c(N4CC5CCC(C4)N5)nc(OCCN4C5CCC4COC5)nc3c2F)c2ccccc2c1 (single isomer, unassigned) [Compound 124, 4-((7S or R)-2-(2-(3-oxa-8-azabicyclo[3.2.1]octan-8-yl)-ethoxy)-4-((1R,5S)-3,8-diazabicyclo[3.2.1]octan-3-yl)-6-chloro-8-fluoroquinazolin-7-yl)naphthalen-2-ol dihydrochloride] | 75.8 | 149 | 2890
Oc1cc(-c2c(Cl)cc3c(N4CC5CCC(C4)N5)nc(OCCCN4CCC5(CCOC5)CC4)nc3c2F)c2ccccc2c1 (single isomer, unassigned) [Compound 261, 4-((S or R)-2-(3-(2-oxa-8-azaspiro[4.5]decan-8-yl)propoxy)-4-((1R,5S)-3,8-diazacyclo[3.2.1]octan-3-yl)-6-chloro-8-fluoroquinazolin-7-yl)naphthalen-2-ol diformate] | 18.7 | 102 | 1080
C[C@@H](COc1nc(N2CC3CCC(C2)N3)c2cc(Cl)c(-c3cc(O)cc4ccccc34)c(F)c2n1)CN1CCO[C@@H](C)C1 (single isomer, unassigned) [Compound 247, 4-((S or R)-4-((1R,5S)-3,8-diazacyclo[3.2.1]octan-3-yl)-6-chloro-8-fluoro-2-((R)-2-methyl-3-((S)-2-methylmorpholinyl)propoxy)quinazolin-7-yl)naphthalen-2-ol formate] | 13.3 | 28.5 | 944
Oc1cc(-c2c(Cl)cc3c(N4CC5CCC(C4)N5)nc(OCC45CCCN4CCC5)nc3c2F)c2ccccc2c1 (single isomer, unassigned) [Compound 199, 4-((R or S)-4-((1R,5S)-3,8-diazabicyclo[3.2.1]octan-3-yl)-6-chloro-8-fluoro-2-((tetrahydro-1H-pyrrolin-7a(5H)-yl)methoxy)quinazolin-7-yl)naphthalen-2-ol diformate] | 13.2 | 9 | 58.4
CN1CCC[C@@]1(C)COc1nc(N2CC3CCC(C2)N3)c2cnc(-c3cc(O)cc4ccccc34)c(F)c2n1 [Compound 136, 4-(4-((1R,5S)-3,8-diazabicyclo[3.2.1]octan-3-yl)-2-((S)-1,2-methylpyrrolidin-2-yl)methoxy)-8-fluoropyridinyl[4,3-d]pyrimidin-7-yl)naphthalen-2-ol diformate] | 30.7 | 67.5 | 1160
CN1C[C@@H]2C[C@@H]2[C@H]1COc1nc(N2CC3CCC(C2)N3)c2cnc(-c3cc(O)cc4ccccc34)c(F)c2n1 [Compound 140, 4-(4-((1R,5S)-3,8-diazabicyclo[3.2.1]octan-3-yl)-8-fluoro-2-((1S,2S,5R)-3-methyl-3-azabicyclo[3.1.0]hexan-2-yl)methoxy)pyridin[4,3-d]pyrimidin-7-yl)naphthalen-2-ol dihydrochloride] | 32.8 | 95.7 | 1360
N=C(N)NCCCOc1nc(N2CC3CCC(C2)N3)c2cc(Cl)c(-c3cc(O)cc4ccccc34)c(F)c2n1 (single isomer, unassigned) [Compound 150, 1-(3-((4-((1R,5S)-3,8-diazabicyclo[3.2.1]octan-3-yl)-6-chloro-8-fluoro-7-((S or R)-3-hydroxynaphthalen-1-yl)quinazolin-2-yl)oxy)propyl)guanidine diformate] | 39.2 | 114 | 2040
Oc1cc(-c2c(Cl)cc3c(N4CC5CCC(C4)N5)nc(OCCCN4C5COCC4C5)nc3c2F)c2ccccc2c1 (single isomer, unassigned) [Compound 200, 4-((7S or 7R)-2-(3-(3-oxa-6-azabicyclo[3.1.1]heptan-6-yl)propoxy)-4-((1R,5S)-3,8-diazabicyclo[3.2.1]octan-3-yl)-6-chloro-8-fluoroquinazolin-7-yl)naphthalen-2-ol diformate] | 62 | 73.7 | 2490
Oc1cc(-c2c(Cl)cc3c(N4CC5CCC(C4)N5)nc(OCC4(CN5C6CCC5COC6)COC4)nc3c2F)c2ccccc2c1 (single isomer, unassigned) [Compound 204, 4-((7S or 7R)-2-((3-(3-oxa-8-azabicyclo[3.2.1]octan-8-ylmethyl)oxa-3-yl)methoxy)-4-((1R,5S)-3,8-diazabicyclo[3.2.1]octan-3-yl)-6-chloro-8-fluoroquinazolin-7-yl)naphthalen-2-ol ditrifluoroacetate] | 77.4 | 121 | 4250

Results, then the compound that gave them:

IC50 (KRAS-G12D and SOS1) [nM] | IC50 (KRAS_G12D and cRAF) [nM] | IC50 (KRAS_WT and SOS1) [nM] | SMILES
230 | 1600 | 68300 | CN1CCC2(C1)CN(c1nc(N3CC4CCC(C3)N4)c3cc(Cl)c(-c4cc(O)cc5ccccc45)c(F)c3n1)C2 (single isomer, unassigned) [Compound 61a, 4-((S or R)-4-((1R,5S)-3,8-diazabicyclo[3.2.1]octan-3-yl)-6-chloro-8-fluoro-2-(6-methyl-2,6-diazaspiro[3.4]octan-2-yl)quinazolin-7-yl)naphthalen-2-ol]
118 | 278 | 4600 | Oc1cc(-c2c(Cl)cc3c(N4CC5CCC(C4)N5)nc(OCCN4CCCC(F)C4)nc3c2F)c2ccccc2c1 (single isomer, unassigned) [Compound 267b, 4-((R or S)-4-((1R,5S)-3,8-diazacyclo[3.2.1]octan-3-yl)-6-chloro-8-fluoro-2-(2-((R or S)-3-fluoropiperidin-1-yl)ethoxy)quinazolin-7-yl)naphthalen-2-ol formate]
13.5 | 9.77 | 262 | CCc1cccc2cc(O)cc(-c3c(F)cc4c(N5CC6CCC(C5)N6)nc(OC[C@H](C)CN5C6CCC5CC(OC)C6)nc4c3F)c12 (single isomer, unassigned) [Compound 286a, (S or R)-4-(4-((1R,5S)-3,8-diazabicyclo[3.2.1]octan-3-yl)-6,8-difluoro-2-((R)-3-((1R,3S,5S)-3-methoxy-8-azabicyclo[3.2.1]octan-8-yl)-2-methylpropoxy)quinazolin-7-yl)-5-ethylnaphthalen-2-o1 dihydrochloride]
278 | 3330 | 15900 | CN(C)C1CN(c2nc(N3CC4(CNC4)C3)c3cc(Cl)c(-c4cc(O)cc5ccccc45)c(F)c3n2)C1 (single isomer, unassigned) [Compound 7a, (R or S)-4-(6-chloro-2-(3-(dimethylamino)azetidin-1-yl)-8-fluoro-4-(2,6-diazaspiro[3.3]heptan-2-yl)quinazolin-7-yl)naphthalen-2-ol]
20.4 | 12.6 | 47.2 | Oc1cc(-c2c(Cl)cc3c(N4CC5CCC(C4)N5)nc(OCC45CCCN4CCC5)nc3c2F)c2ccccc2c1 (single isomer, unassigned) [Compound 58a, 4-((S or R)-4-((1R,5S)-3,8-diazabicyclo[3.2.1]octan-3-yl)-6-chloro-8-fluoro-2-((tetrahydro-1H-pyrrolin-7a(5H)-yl)methoxy)quinazolin-7-yl)naphthalen-2-o1]
1140 | 9210 | 28900 | CN1CCN(c2nc(N3CC4CCC(C3)N4)c3cc(Cl)c(-c4cc(O)cc5ccccc45)c(F)c3n2)CC1 (single isomer, unassigned) [Compound 52a, 4-((S or R)-4-((1R,5S)-3,8-diazabicyclo[3.2.1]octan-3-yl)-6-chloro-8-fluoro-2-(4-methylpiperazin-1-yl)quinazolin-7-yl)naphthalen-2-ol]
9.1 | 7.18 | 227 | CCc1c(F)ccc2cc(O)cc(-c3c(Cl)cc4c(N5CC6CCC(C5)N6)nc(OC[C@H](C)CN5C6CCC5COC6)nc4c3F)c12 (single isomer, unassigned) [Compound 233b, 4-((7R or 7S)-2-((2R)-3-(3-oxa-8-azabicyclo[3.2.1]octan-8-yl)-2-methylpropoxy)-4-((1R,5S)-3,8-diazabicyclo[3.2.1]octan-3-yl)-6-chloro-8-fluoroquinazolin-7-yl)-5-ethyl-6-fluoronaphthalen-2-ol formate]
